These results are taken from publication PMC10253445, “Exploring the Potential of Sulfonamide-Dihydropyridine Hybrids as Multitargeted Ligands for Alzheimer’s Disease Treatment” (International Journal of Molecular Sciences, 2023).

Where “and” joins values, the source holds several entries; their conditions need not be identical. Equal entries are not always repeated. Entries after “also recorded” stand apart in the source; their conditions may differ.

The test system of assay [1] is Nrf2-ARE. Also noted: method as in PMID 27736061. To be noted: cited from earlier work.
The subject of assay [2] is calcium channel. The assay can be described thus: Calcium channel blockade, FLIPR calcium indicator 6 in SH-SY5Y cells. To be noted: KCl/CaCl2-induced calcium flux. The class given is cell-based. The method, then:
Assessment of calcium channel blockade of compounds 4a–i was performed according to the previously described protocol using the FLIPR calcium indicator 6 [59]. Briefly, FLIPR-loaded SH-SY5Y cells were exposed for 10 min to a 10 μm concentration of the tested compounds and to nimodipine used as a reference. 0.1% DMSO was used as a vehicle. […] Data were collected in three independent experiments with eight technical replicates per experiment. Outliers detected by the Grubbs test were excluded from further analysis.
(Calcium assays in cells follow changes in intracellular calcium, usually with a dye or a luminescent sensor.)

Assay [3] in a line: Oxygen radical absorbance capacity (ORAC) assay. Particulars: Trolox Equivalents, mean (n = 3) ± SEM.
Method: Briefly, in a black 96-well microplate (Nunc), fluorescein and the tested compound were incubated for 15 min at 37 °C. […] All reactions were performed in triplicate, and at least three different assays were performed for each sample.
The target in assay [4] is T1, EeAChE (Electrophorus electricus, UniProt O42275).
T1 construct: purified AChE from Electrophorus; purchased Sigma-Aldrich Type V-S; host or cells: natural enzyme purified from Electrophorus electricus
T1 sequence (O42275 24-633): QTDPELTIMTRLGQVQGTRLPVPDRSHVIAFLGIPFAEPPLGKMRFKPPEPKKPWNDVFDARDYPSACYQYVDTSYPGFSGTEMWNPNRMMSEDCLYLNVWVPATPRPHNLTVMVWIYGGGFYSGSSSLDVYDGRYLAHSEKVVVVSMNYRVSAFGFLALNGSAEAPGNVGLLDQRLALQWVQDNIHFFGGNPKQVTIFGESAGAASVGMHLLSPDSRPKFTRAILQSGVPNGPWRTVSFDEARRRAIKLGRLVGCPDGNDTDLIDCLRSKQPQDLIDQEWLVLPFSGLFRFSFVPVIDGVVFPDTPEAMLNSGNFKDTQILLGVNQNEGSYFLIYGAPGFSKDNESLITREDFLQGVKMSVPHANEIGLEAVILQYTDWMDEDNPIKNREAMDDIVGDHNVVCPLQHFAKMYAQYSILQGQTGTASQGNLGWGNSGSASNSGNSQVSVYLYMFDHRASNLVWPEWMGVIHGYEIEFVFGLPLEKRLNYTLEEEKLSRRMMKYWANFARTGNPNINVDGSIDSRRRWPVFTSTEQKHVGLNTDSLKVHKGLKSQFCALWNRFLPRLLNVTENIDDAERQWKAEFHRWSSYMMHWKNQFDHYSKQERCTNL
Kind of assay: biochemical. To be noted: for inhibition at 10 µM: read-out: EeAChE % inhibition at 10 μM (IC50 not given).

The target of assay [5] is T2, eqBChE (Equus caballus, UniProt P81908).
T2 construct: BuChE from horse serum; purchased Sigma-Aldrich; host or cells: horse serum
T2 sequence (P81908 whole entry): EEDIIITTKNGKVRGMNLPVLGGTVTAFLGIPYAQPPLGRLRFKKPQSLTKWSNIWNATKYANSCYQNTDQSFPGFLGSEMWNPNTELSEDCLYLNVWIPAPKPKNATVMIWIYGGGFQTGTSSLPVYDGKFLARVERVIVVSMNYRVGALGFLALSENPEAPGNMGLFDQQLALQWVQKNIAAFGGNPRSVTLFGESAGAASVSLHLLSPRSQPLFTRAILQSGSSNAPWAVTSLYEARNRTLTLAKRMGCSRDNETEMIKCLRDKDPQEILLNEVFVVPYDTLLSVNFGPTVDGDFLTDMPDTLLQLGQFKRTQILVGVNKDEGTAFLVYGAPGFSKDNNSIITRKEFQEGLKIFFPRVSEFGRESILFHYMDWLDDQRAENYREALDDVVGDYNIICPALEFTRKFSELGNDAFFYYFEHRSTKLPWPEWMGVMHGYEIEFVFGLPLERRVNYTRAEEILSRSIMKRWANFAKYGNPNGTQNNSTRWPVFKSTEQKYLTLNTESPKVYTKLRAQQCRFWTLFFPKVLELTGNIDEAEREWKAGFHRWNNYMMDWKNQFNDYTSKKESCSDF
Kind of assay: biochemical. Particulars: for inhibition at 10 µM: read-out: eqBChE % inhibition at 10 μM (IC50 not given); for IC50: read-out: eqBChE IC50 ± SEM. Format: biochemical.

Assay [6] has as its system Nrf2-ARE. The assay can be described thus: Nrf2 transcriptional activation, Nrf2/ARE-luciferase reporter cells. Format: cell-based. Particulars: for CD (concentration required to double the specific luciferase reporter activity): 24 h treatment; for lowest concentration with significant induction of the Nrf2 transcriptional pathway: tested at 1, 5, 10, 25, 50 μM for 24 h. Here is the method: The Nrf2-ARE activating effect of selected 4a, 4d and 4f was evaluated in vitro using a cell-based luciferase assay in the AREc32 cell line, tert-butylhydroquinone (TBHQ) being used as positive control.
Then, AREc32 cells were treated with increasing concentrations of each compound (1, 5, 10, 25, 50 μM) for 24 h, and luciferase activity was then measured.
The evaluation of Nrf2 transcriptional activation was then performed using non-cytotoxic concentrations of the tested compounds according to the protocol previously described. Briefly, the cells were seeded as described for the MTT assay, except that white 96-well culture plates were used. After 48 h of incubation, the cells were treated with the tested compounds or DMSO (0.1%). After 24 h of treatment, luciferase activity was measured using the Bright–Glo Luciferase Assay System (Promega, Madison, WI, USA) according to the manufacturer’s instructions. All reactions were performed in duplicate and repeated in at least four different cultures.
(In general: Reporter assays use an easily measured gene product as a stand-in for the process of interest.)

`COc1ccc2[nH]cc(CCNC(C)=O)c2c1` [melatonin]: the CD in assay [1] was 60 µM.
In general, inhibition refers to the drop in the measured response relative to a control, in per cent. Turning to `CC1=C(C(=O)OC(C)C)C(c2ccc(NS(=O)(=O)c3ccc(C)cc3)cc2)C(C(=O)OC(C)C)=C(C)N1` [Compound 4h, Diisopropyl 2,6-Dimethyl-4-(4-((4-methylphenyl)sulfonamido)phenyl)-1,4-dihydropyridine-3,5-dicarboxylate], the “Calcium Antagonism (% Inhibition at 10 μM) ± SEM” value in assay [2] was 51 ± 5.3%. For the same molecule, the ORAC in assay [3] is recorded as 1.59 ± 0.1 TE. Moreover, the inhibition at 10 µM in assay [4] and in assay [5] was under 50% each time.
For `COCCOC(=O)C1=C(C)NC(C)=C(C(=O)OC(C)C)C1c1cccc([N+](=O)[O-])c1` (centres unmarked) [nimodipine, reference compound], the “Calcium Antagonism (% Inhibition at 10 μM) ± SEM” value in assay [2] worked out at 52 ± 4.1%.
Broadly, the IC50 is the point on the concentration scale where inhibition reaches its midpoint. Consider `CCOC(=O)C1=C(C)NC(C)=C(C(=O)OCC)C1c1ccc(NS(C)(=O)=O)cc1` [Compound 4f, Diethyl 2,6-Dimethyl-4-(4-(methylsulfonamido)phenyl)-1,4-dihydropyridine-3,5-dicarboxylate], for which, in assay [6], the “CD (concentration required to double the specific luciferase reporter activity)” value is 44.3 µM and 44.3 ± 4.7 µM. For the same molecule, the “lowest concentration with significant induction of the Nrf2 transcriptional pathway” value in assay [6] was found to be 50 µM. The “Calcium Antagonism (% Inhibition at 10 μM) ± SEM” value in assay [2] came to 27 ± 3.5%. The ORAC in assay [3] was 1.30 TE and 1.30 ± 0.1 TE. The half-maximal inhibitory concentration (IC50) in assay [4] (read-out: EeAChE IC50 ± SEM) stood at 12.6 ± 1.2 µM; in assay [5] it was 8.7 ± 0.6 µM.
Turning to `CCOC(=O)C1=C(C)NC(C)=C(C(=O)OCC)C1c1ccc(NS(=O)(=O)c2ccccc2)cc1` [Compound 4d, Diethyl 2,6-Dimethyl-4-(4-(phenylsulfonamido)phenyl)-1,4-dihydropyridine-3,5-dicarboxylate], in assay [6] (1-50 μM, 24 h), the “Nrf2 transcriptional activation (luciferase activity)” value is recorded as “no significant activity”. Further, in assay [6], the “CD (concentration required to double the specific luciferase reporter activity)” value is over 50 µM. The “Calcium Antagonism (% Inhibition at 10 μM) ± SEM” value in assay [2] was 22 ± 4.7%. In addition, in assay [3], the ORAC was 1.67 TE and 1.67 ± 0.0 TE. Further, the inhibition at 10 µM in assay [4] was under 50%. In assay [5], the “fold less active than tacrine on eqBChE” value is 135 fold, the “selectivity AChE vs BChE” value was “totally selective to BChE; also recorded: fully selective inhibition of BChE” and the concentration for half-maximal inhibition (IC50) is 0.3 ± 0.1 µM.
As to `COC(=O)C1=C(C)NC(C)=C(C(=O)OC)C1c1ccc(NS(C)(=O)=O)cc1` [Compound 4c, Dimethyl 2,6-Dimethyl-4-(4-(methylsulfonamido)phenyl)-1,4-dihydropyridine-3,5-dicarboxylate], the ORAC in assay [3] was 3.01 TE and 3.01 ± 0.1 TE. Moreover, the inhibition at 10 µM in assay [4] and in assay [5] was under 50% each time.
Take `CC1=C(C(=O)OC(C)C)C(c2ccc(NS(=O)(=O)c3ccccc3)cc2)C(C(=O)OC(C)C)=C(C)N1` [Compound 4g, Diisopropyl 2,6-Dimethyl-4-(4-(phenylsulfonamido)phenyl)-1,4-dihydropyridine-3,5-dicarboxylate]: in assay [2], the “Calcium Antagonism (% Inhibition at 10 μM) ± SEM” value worked out at 50 ± 4.1%. Further, the ORAC in assay [3] is 0.86 TE and 0.86 ± 0.1 TE. Moreover, the inhibition at 10 µM in assay [4] and in assay [5] was under 50% each time.
On to `CCOC(=O)C1=C(C)NC(C)=C(C(=O)OCC)C1c1ccc(NS(=O)(=O)c2ccc(C)cc2)cc1` [Compound 4e, Diethyl 2,6-Dimethyl-4-(4-((4-methylphenyl)sulfonamido)phenyl)-1,4-dihydropyridine-3,5-dicarboxylate], for which the “Calcium Antagonism (% Inhibition at 10 μM) ± SEM” value in assay [2] was 26 ± 4.1%. Besides, the ORAC in assay [3] is 2.07 ± 0.3 TE. Further, the inhibition at 10 µM in assay [4] and in assay [5] was under 50% throughout.
For `CC(C)(C)c1cc(O)ccc1O` [TBHQ, tert-butylhydroquinone, reference compound], in assay [6], the “CD (concentration required to double the specific luciferase reporter activity)” value was 1.2 µM and 1.2 ± 0.2 µM.
As for `CC1=C(C(=O)OC(C)C)C(c2ccc(NS(C)(=O)=O)cc2)C(C(=O)OC(C)C)=C(C)N1` [Compound 4i, Diisopropyl 2,6-Dimethyl-4-(4-(methylsulfonamido)phenyl)-1,4-dihydropyridine-3,5-dicarboxylate], in assay [2], the “Calcium Antagonism (% Inhibition at 10 μM) ± SEM” value is on record as 25 ± 5.1%. The ORAC in assay [3] was 1.11 ± 0.3 TE. Moreover, the inhibition at 10 µM in assay [4] and in assay [5] was under 50% each time.
Regarding `COC(=O)C1=C(C)NC(C)=C(C(=O)OC)C1c1ccc(NS(=O)(=O)c2ccccc2)cc1` [Compound 4a, Dimethyl 2,6-Dimethyl-4-(4-(phenylsulfonamido)phenyl)-1,4-dihydropyridine-3,5-dicarboxylate], in assay [6], the “CD (concentration required to double the specific luciferase reporter activity)” value was 19.3 µM and 19.3 ± 6.7 µM; the “lowest concentration with significant induction of the Nrf2 transcriptional pathway” value stood at 25 µM. For the same molecule, the “Calcium Antagonism (% Inhibition at 10 μM) ± SEM” value in assay [2] is 32 ± 5.1%. In addition, the ORAC in assay [3] is 1.59 TE and 1.59 ± 0.2 TE. In assay [4], the inhibition at 10 µM was under 50%. In assay [5], the “selectivity AChE vs BChE” value is listed as “totally selective to BChE; also recorded: fully selective inhibition of BChE” and the IC50 was 5 ± 0.4 µM.
Take `COC(=O)C1=C(C)NC(C)=C(C(=O)OC)C1c1ccc(NS(=O)(=O)c2ccc(C)cc2)cc1` [Compound 4b, Dimethyl 2,6-Dimethyl-4-(4-((4-methylphenyl)sulfonamido)phenyl)-1,4-dihydropyridine-3,5-dicarboxylate]: in assay [2], the “Calcium Antagonism (% Inhibition at 10 μM) ± SEM” value amounted to 37 ± 5.1%. Also, the ORAC in assay [3] is listed as 1.96 ± 0.1 TE. Also, the inhibition at 10 µM in assay [4] and in assay [5] was under 50% throughout.
